Experimental data reported in patent US9522886B2, “Pyridine derivatives” (Hoffmann-La Roche Inc., priority 2012, dated 2016).
Like-named read-outs stand apart in the source and are kept apart here.

Key:
[1] = target: human CB1 receptors (Homo sapiens (Human), UniProt P21554); experiment: cAMP assay, CHO cells expressing human CB1 receptors; format: cell-based
Procedure: (§1) CHO cells expressing human CB1 or CB2 receptors are seeded 17-24 hours prior to the experiment 50.000 cells per well in a black 96 well plate with flat clear bottom (Corning Costar #3904) in DMEM (Invitrogen No. 31331), 1×HT supplement, with 10% fetal calf serum and incubated at 5% CO2 and 37° C. in a humidified incubator. The growth medium was exchanged with Krebs Ringer Bicarbonate buffer with 1 mM IBMX and incubated at 30° C. for 30 min. Compounds were added to a final assay volume of 100 μl and incubated for 30 min at 30° C. Using the cAMP-Nano-TRF detection kit the assay (Roche Diagnostics) was stopped by the addition of 50 μl lysis reagent (Tris, NaCl, 1.5% Triton X100, 2.5% NP40, 10% NaN3) and 50 μl detection solutions (20 μM mAb Alexa700-cAMP 1:1, and 48 μM Ruthenium-2-AHA-cAMP) and shaken for 2 h at room temperature. The time-resolved energy transfer is measured by a TRF reader (Evotec Technologies GmbH), equipped with a ND:YAG laser as excitation source. The plate is measured twice with the excitation at 355 nm and at the emission with a delay of 100 ns and a gate of 100 ns, total exposure time 10 s at 730 (bandwidth 30 nm) or 645 nm (bandwidth 75 nm), respectively.
(§2) EC50 values were determined using Activity Base analysis (ID Business Solution, Limited).

[2] = target: human CB2 receptors (Homo sapiens (Human), UniProt P34972); experiment: cAMP assay, CHO cells expressing human CB2 receptors; format: cell-based; details: functional cAMP assay, CHO cells expressing human CB2; read-out: human CB2 EC50
Chain of human CB2 receptors (P34972 whole entry): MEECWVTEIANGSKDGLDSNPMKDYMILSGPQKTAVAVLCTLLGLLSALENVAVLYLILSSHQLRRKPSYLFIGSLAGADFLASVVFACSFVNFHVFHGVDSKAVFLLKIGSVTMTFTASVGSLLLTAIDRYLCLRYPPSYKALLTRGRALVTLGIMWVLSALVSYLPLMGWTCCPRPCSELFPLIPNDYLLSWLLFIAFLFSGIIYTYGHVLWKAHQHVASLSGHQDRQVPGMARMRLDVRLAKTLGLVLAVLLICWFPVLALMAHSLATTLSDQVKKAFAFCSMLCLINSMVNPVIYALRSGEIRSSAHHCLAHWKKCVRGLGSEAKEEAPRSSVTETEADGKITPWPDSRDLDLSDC
Procedure: as §1, §2

[3] = functional cAMP assay, CHO cells expressing human CB1, read-out: human CB1 EC50

Chain of human CB1 receptors (P21554 whole entry): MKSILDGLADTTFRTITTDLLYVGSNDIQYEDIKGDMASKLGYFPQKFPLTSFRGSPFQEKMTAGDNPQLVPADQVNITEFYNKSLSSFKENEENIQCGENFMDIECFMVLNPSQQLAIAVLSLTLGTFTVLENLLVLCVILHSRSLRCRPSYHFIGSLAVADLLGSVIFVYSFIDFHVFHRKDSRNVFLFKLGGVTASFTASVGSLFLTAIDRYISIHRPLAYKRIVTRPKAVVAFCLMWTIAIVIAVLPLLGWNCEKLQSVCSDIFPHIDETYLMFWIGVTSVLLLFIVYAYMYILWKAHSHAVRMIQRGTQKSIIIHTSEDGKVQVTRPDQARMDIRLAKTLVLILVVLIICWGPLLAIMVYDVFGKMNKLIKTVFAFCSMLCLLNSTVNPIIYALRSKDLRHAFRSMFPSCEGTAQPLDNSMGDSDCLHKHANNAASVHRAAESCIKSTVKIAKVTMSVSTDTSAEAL

SMILES | EC50 [2] | EC50 [1, 3] | also measured
NC(=O)[C@@H]1CCCC[C@@H]1NC(=O)c1ccc(C2CC2)c(OCC2CC2)n1 (relative stereo) [Example 12, 5-Cyclopropyl-6-cyclopropylmethoxy-pyridine-2-carboxylic acid (rel-(1S,2R)-2-carbamoyl-cyclohexyl)-amide] | – | – | EC50 [1]: > 10000 nM
CCCCC(CC(N)=O)NC(=O)c1ccc(C2CC2)c(OCC2CC2)n1 (single isomer, unassigned; (+)) [Example 10, (+)-5-Cyclopropyl-6-cyclopropylmethoxy-pyridine-2-carboxylic acid (1-carbamoylmethyl-pentyl)-amide] | 0.3 nM | – | –
NC(=O)CC(NC(=O)c1ccc(N2CC(F)(F)C2)c(OCC2CC2)n1)C1CCOCC1 (single isomer, unassigned; (+)) [Example 59, (+)-6-Cyclopropylmethoxy-5-(3,3-difluoro-azetidin-1-yl)-pyridine-2-carboxylic acid [2-carbamoyl-1-(tetrahydro-pyran-4-yl)-ethyl]-amide] | – | > 10000 nM | –
CCCCC(CC(N)=O)NC(=O)c1ccc(C2CC2)c(OCC2CC2)n1 (single isomer, unassigned; (-)) [Example 9, (−)-5-Cyclopropyl-6-cyclopropylmethoxy-pyridine-2-carboxylic acid (1-carbamoylmethyl-pentyl)-amide] | 2.1 nM | – | –
NC(=O)CC(NC(=O)c1ccc(N2CC(F)(F)C2)c(OCC2CC2)n1)C1CCOCC1 (single isomer, unassigned; (-)) [Example 58, (−)-6-Cyclopropylmethoxy-5-(3,3-difluoro-azetidin-1-yl)-pyridine-2-carboxylic acid [2-carbamoyl-1-(tetrahydro-pyran-4-yl)-ethyl]-amide] | – | > 10000 nM | –
NC(=O)[C@@H]1CCCC[C@@H]1NC(=O)c1ccc(C2CC2)c(OCC2CC2)n1 (stereo in doubt) [Example 15, (+)-cis-5-Cyclopropyl-6-cyclopropylmethoxy-pyridine-2-carboxylic acid (2-carbamoyl-cyclohexyl)-amide] | – | – | EC50 [1]: > 10000 nM
NC(=O)[C@H]1CCCC[C@@H]1NC(=O)c1ccc(C2CC2)c(OCC2CC2)n1 (stereo in doubt) [Example 16, (−)-trans-5-Cyclopropyl-6-cyclopropylmethoxy-pyridine-2-carboxylic acid (2-carbamoyl-cyclohexyl)-amide] | – | 172 nM | –
CN1CC(NC(=O)c2ccc(N3CC(F)(F)C3)c(OCC3CC3)n2)CC1=O (stereo not drawn) [Example 3, 6-Cyclopropylmethoxy-5-(3,3-difluoro-azetidin-1-yl)-pyridine-2-carboxylic acid (1-methyl-5-oxo-pyrrolidin-3-yl)-amide] | – | > 10000 nM | –
CC(C)[C@@H](CC(N)=O)NC(=O)c1ccc(C2CC2)c(OCC2CC2)n1 [Example 13, 5-Cyclopropyl-6-cyclopropylmethoxy-pyridine-2-carboxylic acid ((R)-1-carbamoylmethyl-2-methyl-propyl)-amide] | 5 nM | – | –
CC(C)[C@H](CC(N)=O)NC(=O)c1ccc(C2CC2)c(OCC2CC2)n1 [Example 14, 5-Cyclopropyl-6-cyclopropylmethoxy-pyridine-2-carboxylic acid ((S)-1-carbamoylmethyl-2-methyl-propyl)-amide] | 1.5 nM | – | –
NC(=O)CC(NC(=O)c1ccc(N2CC(F)(F)C2)c(OCC2CC2)n1)C1CCOCC1 (stereo not drawn) [Example 53, 6-Cyclopropylmethoxy-5-(3,3-difluoro-azetidin-1-yl)-pyridine-2-carboxylic acid [2-carbamoyl-1-(tetrahydro-pyran-4-yl)-ethyl]-amide] | – | > 10000 nM | –
NC(=O)CC1(NC(=O)c2ccc(N3CC(F)(F)C3)c(OCC3CC3)n2)CSC1 [Example 91, N-[3-(2-Amino-2-oxoethyl)thietan-3-yl]-6-(cyclopropylmethoxy)-5-(3,3-difluoroazetidin-1-yl)pyridine-2-carboxamide] | – | > 10000 nM | –
